In US8686224B2, “Plant defense signal peptides” (priority 2005, dated 2014):
pEC50: −log10 of the molar value. Entries after “also recorded” stand apart in the source; their conditions may differ.

Key:
AtPEPR1 = target: T1, AtPEPR1 (Arabidopsis thaliana, UniProt Q9SSL9); experiment: Medium alkalinization of transgenic tobacco cells expressing AtPEPR1; type: cell-based
T1 construct: Tobacco cells were transformed with a CaMV-35S-AtPEPR1 gene; expressed in transfected cells; host or cells: tobacco suspension-cultured cells (Agrobacterium-mediated, CaMV 35S promoter)
T1 sequence (Q9SSL9 29-1123): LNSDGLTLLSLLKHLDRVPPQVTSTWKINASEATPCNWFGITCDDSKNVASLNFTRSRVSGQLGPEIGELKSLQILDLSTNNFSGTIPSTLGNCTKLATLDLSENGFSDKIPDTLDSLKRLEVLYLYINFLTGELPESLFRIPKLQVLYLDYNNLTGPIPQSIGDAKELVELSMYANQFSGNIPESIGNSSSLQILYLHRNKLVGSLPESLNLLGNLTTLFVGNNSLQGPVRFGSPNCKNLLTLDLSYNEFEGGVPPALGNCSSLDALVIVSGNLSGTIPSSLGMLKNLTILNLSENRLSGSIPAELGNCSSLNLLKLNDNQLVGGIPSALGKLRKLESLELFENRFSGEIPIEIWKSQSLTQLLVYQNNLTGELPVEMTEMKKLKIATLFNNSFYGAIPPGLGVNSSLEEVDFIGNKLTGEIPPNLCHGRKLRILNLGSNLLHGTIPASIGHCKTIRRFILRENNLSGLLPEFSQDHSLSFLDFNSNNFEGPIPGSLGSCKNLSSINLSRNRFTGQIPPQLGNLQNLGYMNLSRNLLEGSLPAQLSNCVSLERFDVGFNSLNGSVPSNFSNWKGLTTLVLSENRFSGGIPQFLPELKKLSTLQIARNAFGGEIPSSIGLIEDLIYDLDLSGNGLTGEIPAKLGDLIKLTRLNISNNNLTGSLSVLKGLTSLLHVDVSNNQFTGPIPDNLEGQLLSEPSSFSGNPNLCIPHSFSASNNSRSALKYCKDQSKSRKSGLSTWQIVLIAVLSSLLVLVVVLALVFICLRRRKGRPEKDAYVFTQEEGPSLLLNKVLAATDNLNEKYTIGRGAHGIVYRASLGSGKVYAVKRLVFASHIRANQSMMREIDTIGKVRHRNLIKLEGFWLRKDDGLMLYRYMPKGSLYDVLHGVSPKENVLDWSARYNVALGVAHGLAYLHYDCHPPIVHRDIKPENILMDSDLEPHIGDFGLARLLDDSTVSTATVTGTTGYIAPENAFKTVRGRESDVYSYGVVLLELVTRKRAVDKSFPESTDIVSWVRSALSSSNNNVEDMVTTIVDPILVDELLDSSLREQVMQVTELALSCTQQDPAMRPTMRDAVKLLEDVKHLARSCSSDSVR
Description: Tobacco cells were transformed with a CaMV-35S-AtPEPR1 gene to determine whether the foreign receptor protein was targeted to the cell surface, where, in response to AtPep1, it would activate intracellular signaling to effect the alkalinization of the medium of the transgenic tobacco cells. Expression of the AtPEPR1 gene was confirmed by RT-PCR analysis of RNA from three independently transformed tobacco cell lines. […] AtPep2-7 was also supplied to the transgenic tobacco cells expressing AtPEPR1.
To clarify whether AtPEPR2 binds to AtPep1, the AtPEPR2 coding region was fused to the CaMV 35S promoter and introduced into tobacco suspension-cultured cells by Agrobacterium. Tobacco cells expressing AtPEPR1 and GUS genes were also created as positive and negative controls, respectively. […] These transgenic lines were analyzed for alkalinizing activity as previously described (Pearce et al., Proc. Natl. Acad. Sci. USA 98, 12843-12847, 2001).
The response to all AtPep peptides in transgenic tobacco cells expressing either AtPEPR1 or AtPEPR2 was analyzed by the medium alkalinization assay.

[1] = tested on: wild type tobacco suspension-cultured cells; experiment: Medium alkalinization of wild type and GUS expressing tobacco cells; type: cell-based; details: wild type tobacco (b358 also GUS expressing) cells
[2] = target: T2, 180 kD AtPep1-binding protein (AtPep1 receptor, At1g73080) (Arabidopsis thaliana, UniProt Q9SSL9); experiment: Photoaffinity labeling with 125I-azido-Cys-AtPep1, competition; details: microsomal membranes of wild type and control SALK plants, preincubated with 2.5 nM AtPep1
T2 construct: endogenous in cells
T2 sequence (Q9SSL9 29-1123): T1 sequence (Q9SSL9 29-1123)
Method: Photoaffinity labeling. To 1 mL of cultured cells in darkness was added ^125I-azido-Cys-AtPep1 (0.25 nM final concentration as described above) and the cells were shaken for 10 min on an orbital shaker (160 rpm) at room temperature. The cells were transferred to a 1.5 mL glass tube, centrifuged at 10,000×g and the sedimented cells were dispersed in 1 mL cold MS medium containing 3% sucrose and centrifuged as above. This wash was repeated twice. The cells were resuspended in 1 mL MS medium and irradiated with UV-B for 10 min on ice to photoactivate the azido group to effect the crosslinking. The cells were washed with 1 mL MS medium, centrifuged as above, and resuspended in 400 μL of 5% SDS. The cells were disrupted by boiling for 30 min, and the insoluble debris was removed by centrifugation at 10,000×g. Proteins in the clear supernatant were precipitated by adding 1.25 volumes of methanol/chloroform (vol/vol). […]
Microsomal fractions were prepared from one-month-old plants by differential centrifugation as previously described (Scheer and Ryan, Proc. Natl. Acad. Sci. 99:9585-9590, 2002). […] The membranes were incubated for 60 min at approximately 4° C., irradiated with UV-B for 15 min, separated by SDS-PAGE, dried and analyzed by radioautography to identify labeled proteins.

[3] = AtPEPR1 expressing tobacco cells

H-ATKVKAKQRGKEKVSSGRPGQHN-OH [AtPep1]
pEC50 (AtPEPR1): ~9.60 | alkalinization of the medium (AtPEPR1; [3]): strong, reproducible alkalinization; also recorded: caused alkalinization of the media | maximal change (AtPEPR1; [3]): 1.2 pH units | alkalinization of the medium [1]: no alkalinization was detected; also recorded: did not respond | photoaffinity labeled proteins after preincubation [2]: absent
